Our source for the IC50 and EC50 values is US20230339981A1, “KRAS G12D MODULATING COMPOUNDS” (priority 2022, published 2023).

One assay deals with GDP-loaded KRAS G12D (Homo sapiens (Human), UniProt P01116, G12D). Nature of the assay: KRAS G12D (GDP) biochemical assay (TR-FRET probe displacement). Format: binding. The settings on record: 2 hours. The gist of the method:
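Compound pre-incubated 30 min with GDP-loaded KRAS G12D in 50 mM Hepes pH 7.4, 150 mM NaCl, 5 mM MgCl2, 0.005% Tween-20, then Eu-streptavidin and TR-FRET probe added. After 2 h at room temperature, TR-FRET ratio read; IC50 is 50% ratio decrease, sigmoidal fit.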
In general terms: TR-FRET usually uses a lanthanide donor and a delayed reading to cut background.

In the next assay the test system is GP2D (KRAS G12D) cells. The assay is described as follows: 2D cell viability assay (CellTiter-Glo). Type of assay: cell-based. The conditions noted are these: GP2d, 96 h, 4 days. The gist of the method: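 GP2D (KRAS G12D) cells, 1000/well in RPMI + 10% FBS, were plated onto compound (1:3 DMSO series) and grown 4 days at 37 °C, 5% CO2 in 2D. CellTiter-Glo luminescence was read; EC50 is the concentration giving 50% signal decrease, from sigmoidal fit.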
In general terms: In ATP-based viability assays light output follows the ATP content of the culture.

In a further assay the test system is AsPC-1 (KRAS G12D) cells. The assay is described as follows: 3D cell viability assay (spheroids, CellTiter-Glo 3D). Type of assay: cell-based. The settings on record: Homo sapiens, ASPC1, 96 h, AsPC-1 cells, 3D spheroids, 4 days. The gist of the method:
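AsPC-1 cells (1000/well) in DMEM with 10% FBS formed spheroids over 3 days at 37 °C in ultra-low attachment plates, then were treated with 1:3 serial dilutions for 4 days. Viability read by CellTiter-Glo 3D luminescence; EC50 as concentration giving 50% signal decrease, sigmoidal fit.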

GDP-loaded KRAS G12D, sequence (P01116-2 other isoform, or with tags, fused parts or gaps G12D): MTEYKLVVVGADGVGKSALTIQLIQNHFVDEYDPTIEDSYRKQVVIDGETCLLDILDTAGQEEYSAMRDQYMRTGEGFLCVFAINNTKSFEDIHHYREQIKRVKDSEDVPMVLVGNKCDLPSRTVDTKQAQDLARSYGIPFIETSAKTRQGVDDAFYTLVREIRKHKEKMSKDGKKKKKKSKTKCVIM

Turning to `C#Cc1c(F)ccc2cc(O)cc(-c3nc4c5c(nc(OC[C@@]67CCCN6[C@H](COC(C(F)(F)F)(C(F)(F)F)C(F)(F)F)CC7)nc5c3F)N3C[C@H]5CC[C@H](N5)[C@H]3CCC4)c12` [Example 181, 5-ethynyl-6-fluoro-4-((6aR,7S,10R)-1-fluoro-13-(((3S,7aS)-3-(((1,1,1,3,3,3-hexafluoro-2-(trifluoromethyl)propan-2-yl)oxy)methyl)tetrahydro-1H-pyrrolizin-7a(5H)-yl)methoxy)-5,6,6a,7,8,9,10,11-octahydro-4H-3,11a,12,14,15-pentaaza-7,10-methanocyclohepta[4,5]cycloocta[1,2,3-de]naphthalen-2-yl)naphthalen-2-ol], the IC50 (usually the concentration at which inhibition is half-maximal) at GDP-loaded KRAS G12D was 0.5 nM. The EC50 – broadly, the concentration needed to bring the measured effect to its halfway point – with GP2D (KRAS G12D) cells was 0.3 nM; in the assay on AsPC-1 (KRAS G12D) cells, 6.9 nM.
For `C#Cc1c(F)ccc2cccc(-c3nc4c5c(nc(OC[C@@]67CCCN6C[C@H](F)C7)nc5c3F)N3C[C@H]5CC[C@H](N5)[C@H]3[C@@H](C)C4)c12` [Example 183, (5S,5aR,6S,9R)-2-(8-ethynyl-7-fluoronaphthalen-1-yl)-1-fluoro-12-(((2R,7aS)-2-fluorotetrahydro-1H-pyrrolizin-7a(5H)-yl)methoxy)-5-methyl-4,5,5a,6,7,8,9,10-octahydro-3,10a,11,13,14-pentaaza-6,9-methanonaphtho[1,8-ab]heptalene] the same measures were 1.9 nM, 63 nM and 270 nM.
On GDP-loaded KRAS G12D, `C#Cc1c(F)ccc2cc(O)cc(-c3nc4c5c(nc(OCC6(CN7CCC8(CC7)CC8(F)F)CC6)nc5c3F)N3C[C@H]5CC[C@H](N5)[C@H]3CC4)c12` [Example 185, 4-((5aR,6S,9R)-12-((1-((1,1-difluoro-6-azaspiro[2.5]octan-6-yl)methyl)cyclopropyl)methoxy)-1-fluoro-4,5,5a,6,7,8,9,10-octahydro-3,10a,11,13,14-pentaaza[6,9]methanonaphtho[1,8-ab]heptalen-2-yl)-5-ethynyl-6-fluoronaphthalen-2-ol] registered an IC50 of 0.4 nM. Moreover, the concentration giving a half-maximal response (EC50) in the assay on GP2D (KRAS G12D) cells is 2.7 nM; in the assay on AsPC-1 (KRAS G12D) cells, 23.1 nM.
For `C#Cc1c(F)ccc2cc(O)cc(-c3nc4c5c(nc(OC[C@@]67CCCN6C[C@H](F)C7)nc5c3F)N3C[C@H]5CC[C@H](N5)[C@H]3CCCC4)c12` [Example 189, 5-ethynyl-6-fluoro-4-((7aR,8S,11R)-1-fluoro-14-(((2R,7aS)-2-fluorotetrahydro-1H-pyrrolizin-7a(5H)-yl)methoxy)-4,5,6,7,7a,8,9,10,11,12-decahydro-3,12a,13,15,16-pentaaza-8,11-methanocyclohepta[4,5]cyclonona[1,2,3-de]naphthalen-2-yl)naphthalen-2-ol] the same measures were 0.1 nM, 0.6 nM and 2.9 nM.
With `C#Cc1c(F)ccc2cc(O)cc(-c3nc4c5c(nc(OC[C@@]67CCCN6C[C@H](F)C7)nc5c3F)N3C[C@@]5(C)CC[C@H](N5)[C@H]3CC4)c12` [Example 190, 5-ethynyl-6-fluoro-4-((5aR,6S,9R)-1-fluoro-12-(((2R,7aS)-2-fluorotetrahydro-1H-pyrrolizin-7a(5H)-yl)methoxy)-9-methyl-4,5,5a,6,7,8,9,10-octahydro-3,10a,11,13,14-pentaaza-6,9-methanonaphtho[1,8-ab]heptalen-2-yl)naphthalen-2-ol], on GDP-loaded KRAS G12D, the half-maximal inhibitory concentration (IC50) worked out at 0.1 nM. Moreover, the concentration for a half-maximal effect (EC50) was 1.5 nM in the assay on GP2D (KRAS G12D) cells and 7.9 nM with AsPC-1 (KRAS G12D) cells.
For `C#Cc1c(F)ccc2cccc(-c3nc4c5c(nc(OC[C@@]67CCCN6C[C@H](F)C7)nc5c3F)N3C[C@@]5(C)CC[C@H](N5)[C@H]3CC4)c12` [Example 191, (5aR,6S,9R)-2-(8-ethynyl-7-fluoronaphthalen-1-yl)-1-fluoro-12-(((2R,7aS)-2-fluorotetrahydro-1H-pyrrolizin-7a(5H)-yl)methoxy)-9-methyl-4,5,5a,6,7,8,9,10-octahydro-3,10a,11,13,14-pentaaza-6,9-methanonaphtho[1,8-ab]heptalene] the same measures were 2 nM, 39.8 nM and 110 nM.
